Results: patent US12491182B2, “Polymorphs of triazole antifungal compound PC945” (Pulmocide Limited, priority 2019, dated 2025)
Where “and” joins values, the source holds several entries; their conditions need not be identical. Equal entries are not always repeated.

Legend:
[1] = Comparative pharmacokinetic profiling of Forms 1 and 2 by inhalation administration to rats; type: in vivo, male RccHan:WIST rat; conditions: male rats; for Drug Concentration in Animal by No. (plasma) / Drug Concentration Mean (plasma): nominal 2.2 mg/kg; for Drug Concentration in Animal by No. (plasma): individual animals; for Drug Concentration Mean (plasma): group mean
Source text: A study was undertaken to compare the time-course of unchanged drug concentrations in plasma following a single inhalation dose of either Form 1 or Form 2 in rats.
The male RccHan™:WIST rat was considered a suitable species and strain because of its acceptance by regulatory agencies. The inhalation route of administration was chosen to simulate the conditions of clinical administration. A total of 14 of animals (six animals per group with two spare animals), 10 to 12 weeks of age and weighing 306 to 341 g at the start of drug treatment, were used in the study. Treatment consisted of a single 2 hour inhalation exposure with a nebulised formulation of either micronised Form 1 (98.94% purity) to Group 1 animals or micronised Form 2 (98.10% purity) to Group 2 animals. The pharmacokinetic parameters of the two polymorphic forms were determined to support pharmacology and toxicology studies in animals and clinical studies in man.
Suspensions were manufactured by first preparing a concentrated solution of the surfactants (wetting solution) and a saline solution. These were then used to make the vehicle. A saline solution was prepared as follows. Sodium chloride (50 g) was weighed into a 5000 mL volumetric flask, made up to volume with water, stirred with a magnetic stirrer for 10 min and then passed through a 0.22 μm membrane filter. Wetting solution was prepared as follows. Lipoid S100 (10 g) was weighed into a 2000 mL Duran bottle, 1000 g of propylene glycol was added and the mixture was stirred on a Silverson mixer equipped with a 1″ high shear screen for 1 min at 8000 rpm and then passed through a 0.22 μm membrane filter. Vehicle was prepared as follows. The wetting solution (500 mL) was transferred into a 5000 mL volumetric flask, made to volume with saline solution, stirred with a magnetic stirrer for 10 min and then passed through a 0.22 μm membrane filter.
A 1000 mL batch of 4 mg/mL suspension of Compound I was prepared as follows. Compound I (4.00 g) was weighed into a small beaker, 100 mL of wetting solution was added and the mixture was stirred with a Silverson mixer equipped with a 1″ high shear screen for 5 min at 8000 rpm. The mixture was then transferred into a 5000 mL Duran bottle using saline solution and stirred using a Silverson mixer equipped with a 1″ high shear screen for 5 min at 8000 rpm, after which it was stored between 2 and 8° C. Higher or lower strength suspensions (range 0.2 to 20 mg/mL) were prepared by adjusting the input weight of API as appropriate for higher mg/mL suspensions or by further diluting with vehicle for lower mg/mL suspensions. All formulations were magnetically stirred for at least 30 min, and assessed visually prior to administration.
Rats were acclimatised to the inhalation dosing procedure for three consecutive days prior to dosing. Animals were treated with the test substance by aerosol inhalation administration for 120 min via snout only exposure, at a target aerosol concentration of 25.2 μg/L. The estimations of inhaled dose from an exposure duration of 2 hr and an assumed body weight of 300 g were calculated using the formula:
[formula] where: C is the aerosol concentration (μg/L); RMV is the respiratory minute volume (L/min); D is the duration of exposure (120 mins) and BW is the group mean body weight (kg). The mean achieved aerosol concentrations, estimated inhaled dose and particle size distribution (PSD) summary data are presented below. (Table 14).
Venous blood samples (0.3 mL) were taken from the tail vein of animals and samples collected after dosing (2 hr from the start of dose administration) and thereafter at times 3, 4, 6, 8, 12, 24, 28, 32, 36 and 48 hr following treatment. Samples were treated with K2EDTA anticoagulant, spun at 2000 g for 10 min at 4° C. and then stored frozen (−20° C.±10) whilst awaiting analysis. Plasma samples were subsequently analysed for Compound I by LGC using a validated LC-MS/MS method. […]

[2] = Fate of Form 2 slurried in MEK/water mixtures, XRPD; type: physicochemical; conditions: MEK, 25 °C, 24 hours
Description: (Table 12). It was observed that Form 2 integrity was maintained for at least 24 hours at the lower temperature until the water content exceeded 6%, despite an increase in solubility of Compound I from 19 to 30 mg/ml (data not shown).

[3] = as above; type: physicochemical; conditions: MEK, 50 °C, 24 hour time point
[4] = inhalation, IAD (immediately after dosing)

With `Cc1cc(N2CCN(c3ccc(C(=O)Nc4ccc(F)cc4)cc3)CC2)ccc1OC[C@@H]1CO[C@@](Cn2cncn2)(c2ccc(F)cc2F)C1` [Form 2, 4-(4-(4-(((3R,5R)-5-((1H-1,2,4-triazol-1-yl)methyl)-5-(2,4-difluorophenyl)tetrahydrofuran-3-yl)methoxy)-3-methylphenyl)piperazin-1-yl)-N-(4-fluorophenyl)benzamide] the “dose normalised AUCt, fold higher than Form 1” value ([1]; inhalation) was 1.7 fold, the “Drug Concentration in Animal by No. (plasma)” value ([1]; inhalation, 3 hr from start of exposure) was 8.95 ng/mL and 5.40 ng/mL and 6.01 ng/mL and the “Drug Concentration Mean (plasma)” value ([1]; inhalation, 3 hr) was 6.79 ng/mL. For the same compound, the “Drug Concentration in Animal by No. (plasma)” value ([1]; inhalation, 4 hr from start of exposure) was 7.53 ng/mL and 9.31 ng/mL and 8.88 ng/mL, the “Drug Concentration Mean (plasma)” value ([1]; inhalation, 4 hr) was 8.57 ng/mL and the “Drug Concentration in Animal by No. (plasma)” value ([1]; inhalation, 6 hr from start of exposure) was 11.8 ng/mL and 5.38 ng/mL. The “Drug Concentration Mean (plasma)” value ([1]; inhalation, 6 hr) was 8.59 ng/mL, the “Drug Concentration in Animal by No. (plasma)” value ([1]; inhalation, 8 hr from start of exposure) was 6.85 ng/mL and 5.90 ng/mL and 6.79 ng/mL and the “Drug Concentration Mean (plasma)” value ([1]; inhalation, 8 hr) was 6.51 ng/mL. For the same compound, the “Drug Concentration in Animal by No. (plasma)” value ([1]; inhalation, 12 hr from start of exposure) was 10.7 ng/mL and 4.57 ng/mL and 5.84 ng/mL, the “Drug Concentration Mean (plasma)” value ([1]; inhalation, 12 hr) was 7.04 ng/mL and the “Drug Concentration in Animal by No. (plasma)” value ([1]; inhalation, 24 hr from start of exposure) was 11.5 ng/mL. The “Drug Concentration in Animal by No. (plasma)” value ([1]; inhalation, 28 hr from start of exposure) was 8.15 ng/mL and 3.17 ng/mL and 3.32 ng/mL and 4.15 ng/mL and 2.94 ng/mL and 2.93 ng/mL, the “Drug Concentration Mean (plasma)” value ([1]; inhalation, 28 hr) was 4.11 ng/mL and the “Drug Concentration in Animal by No. (plasma)” value ([1]; inhalation, 32 hr from start of exposure) was 7.72 ng/mL and 3.50 ng/mL and 3.33 ng/mL and 4.05 ng/mL and 2.75 ng/mL and 2.51 ng/mL. For the same compound, the “Drug Concentration Mean (plasma)” value ([1]; inhalation, 32 hr) was 3.98 ng/mL, the “Drug Concentration in Animal by No. (plasma)” value ([1]; inhalation, 36 hr from start of exposure) was 6.28 ng/mL and 2.43 ng/mL (2×) and 2.54 ng/mL and 3.59 ng/mL and 2.49 ng/mL and the “Drug Concentration Mean (plasma)” value ([1]; inhalation, 36 hr) was 3.29 ng/mL. The “Drug Concentration in Animal by No. (plasma)” value ([1]; inhalation, 48 hr from start of exposure) was 3.78 ng/mL and 1.79 ng/mL and 1.89 ng/mL and 2.52 ng/mL and 1.83 ng/mL and 1.91 ng/mL, the “Drug Concentration Mean (plasma)” value ([1]; inhalation, 48 hr) was 2.29 ng/mL and the “Drug Concentration Mean (plasma)” value [1, 4] was 2.66 ng/mL. For the same compound, the “Drug Concentration in Animal by No. (plasma)” value [1, 4] was 2.24 ng/mL and 2.59 ng/mL and 3.15 ng/mL, the AUCt dose normalised ([1]; inhalation, AUCt of Form 2 normalised to dose achieved for Form 1 (2.48 mg/kg), 2.48 mg/kg) was 202 ng·h/mL and the “time up to which plasma concentrations remained quantifiable” value ([1]; inhalation, after the start of exposure (last sampling time)) was 48 h. For the same compound, the “Cmax (maximum mean plasma concentration)” value ([1]; single 2 hr inhalation of nebulised aqueous suspension, nominal dose 2.2 mg/kg, 2.2 mg/kg) was 8.59 ng/mL, the AUCt ([1]; single 2 hr inhalation, nominal dose 2.2 mg/kg, 0-48 hr, 2.2 mg/kg) was 0.23 µg·h/mL and the Tmax ([1]; single 2 hr inhalation, nominal dose 2.2 mg/kg, from start of exposure) was 6 h. The “Polymorphic Form by XRPD” value ([2]; water 1 % vol) was 2, the “Polymorphic Form by XRPD” value ([2]; water 2 % vol) was 2 and the “Polymorphic Form by XRPD” value ([2]; water 4 % vol) was 2. The “Polymorphic Form by XRPD” value ([2]; water 6 % vol) was 2, the “Polymorphic Form by XRPD” value ([2]; water 8 % vol) was 1 and the “Polymorphic Form by XRPD” value ([3]; water 1 % vol) was 2. The “Polymorphic Form by XRPD” value ([3]; water 2 % vol) was 2, the “Polymorphic Form by XRPD” value ([3]; water 4 % vol) was 1 and the “Polymorphic Form by XRPD” value ([3]; water 6 % vol) was 1. The “Polymorphic Form by XRPD” value ([3]; water 8 % vol) was 1.
